Square brackets hold non-standard residues; d marks the D form. Peptide text beside a SMILES is read from it. Orn(N5-OH,N5-Ac) = CC(=O)N(O)CCC[C@H](N)C(=O)O

Assay type in all cases: cell-based, Aspergillus fumigatus
For one assay, the system named is ΔsidA/ΔftrACEA17. In words: Growth of double mutant ΔsidA/ΔftrACEA17 on different iron sources. The conditions noted are these: for growth promotion of ΔsidA/ΔftrACEA17: high amounts; for growth of ΔsidA/ΔftrACEA17 on host iron compound as sole iron source: 10 μM as the sole iron source. How it is done: 10^4 conidia of the respective strain were point-inoculated on AMM plates containing the respective iron source, and incubated for 48 h at 37° C. Blood agar was AMM containing 5% sheep blood.
To analyze the potential role of FtrA in iron uptake of A. fumigatus we deleted the encoding gene in ΔsidACEA17 by replacement with the hygromycin resistance (hph) marker (Punt (1987), loc. cit.).

Assay [1] deals with ΔsidACEA17. In words: Conidia production of ΔsidACEA17. The settings on record: without supplement 99% decrease. How it is done:
(§1) FIG. 3: A. Growth phenotypes of wild type and mutant strains. […] 10^4 conidia of the respective strain were point-inoculated on AMM plates containing the respective iron source, and incubated for 48 h at 37° C. Blood agar was AMM containing 5% sheep blood.
(§2) To elucidate the role of sidA a gene deletion mutant from CEA17 by replacement with pyrG was constructed (Weidner (1998), loc. cit.).

For assay [2], the system named is ΔAf-sidA, OMO-deficient A. fumigatus strain. In words: Radial growth of siderophore-negative ΔAf-sidA on Aspergillus minimal medium plates.
Source text: As is described in the appended Examples below, to elucidate the function of Af-sidA, a deletion mutant for this gene was constructed. In the generated mutant allele of ΔAf-sidA, the entire coding region, 279 bp downstream and 137 bp upstream region of the gene was replaced by the hygromycine resistance (hph) marker. […] Consistent with reductive iron assimilation being responsible for the residual growth of ΔAf-sidA, the use of copper-deficient media or the addition of the copper-specific chelator bathocuproine disulfonic acid in a concentration of 30 μM decreased the radial growth rate of ΔAf-sidA 46% and 25% compared to the wt. The growth of ΔAf-sidA was increased to 84% and 99% by supplementation with 1.5 mM FeSO4 and 10 μM ferricrocin, respectively.
as §1

A further assay deals with Δat2. In words: Radial growth of Δat2 in the presence of BPS. The settings on record: iron depleted conditions, BPS 200 μM, radial growth at 48 h. The method, then:
as §1
(§3) FIG. 12: Growth phenotypes of wild type and Δat1, ΔsidD and Δat2 mutant strains. Growth assays were performed during iron replete conditions (+Fe, 10 μM FeSO4), iron depleted conditions (−Fe), iron depleted conditions in the presence of bathophenantroline-disulfonate (BPS, 200 μM) and on blood agar (blood) as described in FIG. 3, radial growth was scored at 48 h.
(§4) Bathophenantroline-disulfonic acid is an inhibitor of the reductive iron assimilatory system and the iron contained in blood agar cannot be readily used by the reductive iron assimilatory system.

A further assay has as its system ΔsidD. Briefly: Radial growth of ΔsidD in the presence of BPS. The settings on record: iron depleted conditions, BPS 200 μM, radial growth at 48 h. How it is done: as §1, §3, §4
For a further assay, the system named is Δat1. Briefly: Radial growth of Δat1 in the presence of BPS. The conditions noted are these: iron depleted conditions, BPS 200 μM, radial growth at 48 h. How it is done:
as §1, §3, §4

Assay [3] relates to ΔsidACEA17. Briefly: Growth sensitivity of ΔsidACEA17 to ferrous iron chelator. How it is done:
as §1, §2

Take `[Cl][Fe]([Cl])[Cl]` [ferric iron]: in the assay on ΔsidA/ΔftrACEA17, the “growth promotion of ΔsidA/ΔftrACEA17” value is reported as “not”. Take hemin: in the assay on ΔsidA/ΔftrACEA17, the “growth of ΔsidA/ΔftrACEA17 on host iron compound as sole iron source” value is reported as “failed to grow”. On to `[Fe+2]` [ferrous iron], for which the “growth promotion of ΔsidA/ΔftrACEA17” value in the assay with ΔsidA/ΔftrACEA17 was “slight growth promotion”. `O=S(=O)([O-])[O-].[Fe+2]` [FeSO4]: the “conidia production of ΔsidACEA17” value with ΔsidACEA17 [1] (supplementation with 1.5 mM) came out at 35%. Further, in assay [2] (supplementation with 1.5 mM), the “growth of ΔAf-sidA compared to the wt” value is listed as 84%. Take “holotransferrin: host iron compound tested as sole iron source”: in the assay on ΔsidA/ΔftrACEA17, the “growth of ΔsidA/ΔftrACEA17 on host iron compound as sole iron source” value was “failed to grow”.

For the compound `CC(=O)N([O-])CCC[C@@H]1NC(=O)CNC(=O)[C@H](CO)NC(=O)CNC(=O)[C@H](CCCN([O-])C(C)=O)NC(=O)[C@H](CCCN([O-])C(C)=O)NC1=O.[Fe+3]` [ferricrocin] (cyclo(GSG[Orn(N5-OH,N5-Ac)][Orn(N5-OH,N5-Ac)][Orn(N5-OH,N5-Ac)])), in the assay on ΔsidACEA17 [1] (supplementation with 10 μM), the “conidia production of ΔsidACEA17” value is recorded as 125%. For the same compound, the “growth of ΔsidA/ΔftrACEA17 with siderophore in growth medium” value in the assay with ΔsidA/ΔftrACEA17 is “unable to grow unless the growth medium contained ferricrocin”. Further, in assay [2], the “antagonism of growth inhibition by BPS and blood (FIG. 7)” value was “antagonist action”. Further, in assay [2] (supplementation with 10 μM), the “growth of ΔAf-sidA compared to the wt” value worked out at 99%. With iron chloride, the “conidia production of ΔsidACEA17” value with ΔsidACEA17 [1] (supplementation with 1.5 mM) came to 35%.

Consider `O=S(=O)(O)c1ccc(-c2ccnc3c2ccc2c(-c4ccc(S(=O)(=O)O)cc4)ccnc23)cc1` [bathophenantroline disulfonate, bathophenanthroline disulfonic acid], for which the “growth rate of Δat2” value in the assay on Δat2 is “wild type growth rate”. In the assay with ΔsidD, the “growth rate of ΔsidD” value is recorded as “decreased growth rate”. Further, in the assay with Δat1, the “growth rate of Δat1” value is “decreased growth rate”. For the same compound, the “sensitivity of ΔsidACEA17 to chelator” value with ΔsidACEA17 [3] is recorded as “increased sensitivity”. In assay [2], the “growth of siderophore negative A fumigatus (FIG. 7)” value was “Growth inhibition”.

For `Cc1cc(-c2ccc(S(=O)(=O)O)cc2)c2ccc3c(-c4ccc(S(=O)(=O)O)cc4)cc(C)nc3c2n1` [bathocuproine disulfonic acid], the “radial growth rate of ΔAf-sidA compared to the wt” value in assay [2] (addition of chelator at 30 μM) turned out to be 25%.

The values above are taken from patent publication US20080152641A1, “Inhibitors of Siderophore Biosynthesis in Fungi” (Autria Wirtschaftsservice, priority 2004, published 2008).
